Experimental data reported in the supplement of paper PMC11451515.

Tested on: NOMO1
Assay: cell viability relative to DMSO control; higher = less cytotoxic
Details: 48 h
Outline: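 Viability values are per-plate percentages of DMSO wells, with background from cell-free wells. Library compounds in DMSO were pin-dosed, in an 11-point threefold series from 47 μM to 0.79 nM, onto NOMO1 or SEM (500 cells/well) or P12-Ichikawa (1000 cells/well) leukemia cells in 1536-well plates (5 μl). Those cells had been adapted for at least four passages in each medium, and CellTiter-Glo One luminescence was read after 48 h at 37°C.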

[1] = HPLM + 10% dialyzed FBS, 0.000781 µM
[2] = HPLM + 10% dialyzed FBS, 0.00234 µM
[3] = HPLM + 10% dialyzed FBS, 0.00702 µM
[4] = HPLM + 10% dialyzed FBS, 0.0211 µM
[5] = HPLM + 10% dialyzed FBS, 0.0632 µM
[6] = HPLM + 10% dialyzed FBS, 0.19 µM
[7] = HPLM + 10% dialyzed FBS, 0.569 µM
[8] = HPLM + 10% dialyzed FBS, 1.71 µM
[9] = HPLM + 10% dialyzed FBS, 5.12 µM
[10] = HPLM + 10% dialyzed FBS, 15.4 µM
[11] = HPLM + 10% dialyzed FBS, 46.1 µM
[12] = RPMI 5 mM glucose + 10% FBS, 0.000781 µM
[13] = RPMI 5 mM glucose + 10% FBS, 0.00234 µM
[14] = RPMI 5 mM glucose + 10% FBS, 0.00702 µM
[15] = RPMI 5 mM glucose + 10% FBS, 0.0211 µM
[16] = RPMI 5 mM glucose + 10% FBS, 0.0632 µM
[17] = RPMI 5 mM glucose + 10% FBS, 0.19 µM
[18] = RPMI 5 mM glucose + 10% FBS, 0.569 µM
[19] = RPMI 5 mM glucose + 10% FBS, 1.71 µM
[20] = RPMI 5 mM glucose + 10% FBS, 5.12 µM
[21] = RPMI 5 mM glucose + 10% FBS, 15.4 µM
[22] = RPMI 5 mM glucose + 10% FBS, 46.1 µM
[23] = RPMI 5 mM glucose + 10% dialyzed FBS, 0.000781 µM
[24] = RPMI 5 mM glucose + 10% dialyzed FBS, 0.00234 µM
[25] = RPMI 5 mM glucose + 10% dialyzed FBS, 0.00702 µM
[26] = RPMI 5 mM glucose + 10% dialyzed FBS, 0.0211 µM
[27] = RPMI 5 mM glucose + 10% dialyzed FBS, 0.0632 µM
[28] = RPMI 5 mM glucose + 10% dialyzed FBS, 0.19 µM
[29] = RPMI 5 mM glucose + 10% dialyzed FBS, 0.569 µM
[30] = RPMI 5 mM glucose + 10% dialyzed FBS, 1.71 µM
[31] = RPMI 5 mM glucose + 10% dialyzed FBS, 5.12 µM
[32] = RPMI 5 mM glucose + 10% dialyzed FBS, 15.4 µM
[33] = RPMI 5 mM glucose + 10% dialyzed FBS, 46.1 µM

## CC(C)OC(=O)[C@H](C)N[P@](=O)(OC[C@H]1O[C@@H](N2\C=C/C(=O)NC2=O)[C@](C)(F)[C@@H]1O)OC3=CC=CC=C3
[1]
  cell viability: 115%
[2]
  cell viability: 125%
[3]
  cell viability: 119%
[4]
  cell viability: 122%
[5]
  cell viability: 127%
[6]
  cell viability: 131%
[7]
  cell viability: 87.5%
[8]
  cell viability: 91%
[9]
  cell viability: 40.5%
[10]
  cell viability: 34.3%
[11]
  cell viability: 40.8%
[12]
  cell viability: 101%
[13]
  cell viability: 99.8%
[14]
  cell viability: 116%
[15]
  cell viability: 98.4%
[16]
  cell viability: 107%
[17]
  cell viability: 99.9%
[18]
  cell viability: 95.7%
[19]
  cell viability: 98%
[20]
  cell viability: 87.3%
[21]
  cell viability: 17.5%
[22]
  cell viability: 19%
[23]
  cell viability: 101%
[24]
  cell viability: 110%
[25]
  cell viability: 115%
[26]
  cell viability: 130%
[27]
  cell viability: 114%
[28]
  cell viability: 100%
[29]
  cell viability: 99.8%
[30]
  cell viability: 101%
[31]
  cell viability: 81.3%
[32]
  cell viability: 23.7%
[33]
  cell viability: 24.1%

## CCCCCCCCCCCCCC(=O)N[C@H](CO)[C@H](O)c1ccc([N+](=O)[O-])cc1
[1]
  cell viability: 92.5%
[2]
  cell viability: 98.8%
[3]
  cell viability: 99.1%
[4]
  cell viability: 105%
[5]
  cell viability: 105%
[6]
  cell viability: 90.8%
[7]
  cell viability: 108%
[8]
  cell viability: 49.9%
[9]
  cell viability: 16.8%
[10]
  cell viability: 3.54%
[11]
  cell viability: 2.02%
[12]
  cell viability: 91.2%
[13]
  cell viability: 82.8%
[14]
  cell viability: 99.6%
[15]
  cell viability: 90.2%
[16]
  cell viability: 98.2%
[17]
  cell viability: 91.3%
[18]
  cell viability: 93%
[19]
  cell viability: 51%
[20]
  cell viability: 21.5%
[21]
  cell viability: 3.33%
[22]
  cell viability: 2.43%
[23]
  cell viability: 83.2%
[24]
  cell viability: 95%
[25]
  cell viability: 95.7%
[26]
  cell viability: 90.6%
[27]
  cell viability: 92.2%
[28]
  cell viability: 93%
[29]
  cell viability: 94.1%
[30]
  cell viability: 59.4%
[31]
  cell viability: 23.2%
[32]
  cell viability: 4.12%
[33]
  cell viability: 2.14%

## C=CC(=O)Nc1cc2c(Nc3ccc(F)c(Cl)c3)ncnc2cc1OCCCN1CCOCC1
[1]
  cell viability: 111%
[2]
  cell viability: 127%
[3]
  cell viability: 121%
[4]
  cell viability: 132%
[5]
  cell viability: 114%
[6]
  cell viability: 104%
[7]
  cell viability: 108%
[8]
  cell viability: 105%
[9]
  cell viability: 76.5%
[10]
  cell viability: 59.1%
[11]
  cell viability: 72.7%
[12]
  cell viability: 123%
[13]
  cell viability: 119%
[14]
  cell viability: 126%
[15]
  cell viability: 124%
[16]
  cell viability: 128%
[17]
  cell viability: 108%
[18]
  cell viability: 104%
[19]
  cell viability: 110%
[20]
  cell viability: 103%
[21]
  cell viability: 88.2%
[22]
  cell viability: 94.3%
[23]
  cell viability: 116%
[24]
  cell viability: 111%
[25]
  cell viability: 117%
[26]
  cell viability: 108%
[27]
  cell viability: 120%
[28]
  cell viability: 109%
[29]
  cell viability: 105%
[30]
  cell viability: 101%
[31]
  cell viability: 80.5%
[32]
  cell viability: 73.4%
[33]
  cell viability: 90.4%

## CC(C(=O)O)c1ccc2c(c1)CC(=O)c1ccccc1S2 (centres undefined)
[1]
  cell viability: 114%
[2]
  cell viability: 106%
[3]
  cell viability: 113%
[4]
  cell viability: 120%
[5]
  cell viability: 121%
[6]
  cell viability: 128%
[7]
  cell viability: 109%
[8]
  cell viability: 87.2%
[9]
  cell viability: 68.2%
[10]
  cell viability: 25.7%
[11]
  cell viability: 30.6%
[12]
  cell viability: 104%
[13]
  cell viability: 115%
[14]
  cell viability: 116%
[15]
  cell viability: 112%
[16]
  cell viability: 107%
[17]
  cell viability: 106%
[18]
  cell viability: 103%
[19]
  cell viability: 103%
[20]
  cell viability: 103%
[21]
  cell viability: 22.3%
[22]
  cell viability: 21.2%
[23]
  cell viability: 99.6%
[24]
  cell viability: 116%
[25]
  cell viability: 94.2%
[26]
  cell viability: 105%
[27]
  cell viability: 113%
[28]
  cell viability: 105%
[29]
  cell viability: 103%
[30]
  cell viability: 85.3%
[31]
  cell viability: 87.7%
[32]
  cell viability: 23%
[33]
  cell viability: 24%

## CC(N[C@H]1CCCC[C@@H]1NC(=O)c1ccc(Cl)cc1)c1cccc2ccccc12 (some centres undefined)
[1]
  cell viability: 117%
[2]
  cell viability: 131%
[3]
  cell viability: 112%
[4]
  cell viability: 127%
[5]
  cell viability: 113%
[6]
  cell viability: 110%
[7]
  cell viability: 139%
[8]
  cell viability: 86.3%
[9]
  cell viability: 83%
[10]
  cell viability: 28%
[11]
  cell viability: 29.5%
[12]
  cell viability: 100%
[13]
  cell viability: 107%
[14]
  cell viability: 120%
[15]
  cell viability: 114%
[16]
  cell viability: 110%
[17]
  cell viability: 113%
[18]
  cell viability: 114%
[19]
  cell viability: 102%
[20]
  cell viability: 105%
[21]
  cell viability: 19.9%
[22]
  cell viability: 18.2%
[23]
  cell viability: 102%
[24]
  cell viability: 108%
[25]
  cell viability: 113%
[26]
  cell viability: 112%
[27]
  cell viability: 111%
[28]
  cell viability: 117%
[29]
  cell viability: 103%
[30]
  cell viability: 103%
[31]
  cell viability: 107%
[32]
  cell viability: 25.4%
[33]
  cell viability: 24.2%

## CNCC[C@H](Oc1cccc2ccccc12)c1cccs1
[1]
  cell viability: 117%
[2]
  cell viability: 119%
[3]
  cell viability: 145%
[4]
  cell viability: 116%
[5]
  cell viability: 134%
[6]
  cell viability: 117%
[7]
  cell viability: 130%
[8]
  cell viability: 123%
[9]
  cell viability: 90.8%
[10]
  cell viability: 41.5%
[11]
  cell viability: 26.5%
[12]
  cell viability: 108%
[13]
  cell viability: 122%
[14]
  cell viability: 122%
[15]
  cell viability: 116%
[16]
  cell viability: 120%
[17]
  cell viability: 112%
[18]
  cell viability: 124%
[19]
  cell viability: 110%
[20]
  cell viability: 116%
[21]
  cell viability: 44.5%
[22]
  cell viability: 26.3%
[23]
  cell viability: 105%
[24]
  cell viability: 127%
[25]
  cell viability: 116%
[26]
  cell viability: 119%
[27]
  cell viability: 137%
[28]
  cell viability: 113%
[29]
  cell viability: 112%
[30]
  cell viability: 114%
[31]
  cell viability: 121%
[32]
  cell viability: 46.7%
[33]
  cell viability: 27.4%

## COC1=C(OCCCN2CCOCC2)C=CC\3=C1/N=C(/NC(=O)C4=CN=C(N)N=C4)N5CC/N=C35
[1]
  cell viability: 101%
[2]
  cell viability: 111%
[3]
  cell viability: 111%
[4]
  cell viability: 89.4%
[5]
  cell viability: 99.4%
[6]
  cell viability: 73.2%
[7]
  cell viability: 55.5%
[8]
  cell viability: 59.4%
[9]
  cell viability: 44.6%
[10]
  cell viability: 42.2%
[11]
  cell viability: 39.8%
[12]
  cell viability: 83.3%
[13]
  cell viability: 90.5%
[14]
  cell viability: 84.4%
[15]
  cell viability: 78.9%
[16]
  cell viability: 83.3%
[17]
  cell viability: 80.5%
[18]
  cell viability: 71.9%
[19]
  cell viability: 59.6%
[20]
  cell viability: 52%
[21]
  cell viability: 49.3%
[22]
  cell viability: 46.1%
[23]
  cell viability: 94.7%
[24]
  cell viability: 105%
[25]
  cell viability: 88.9%
[26]
  cell viability: 92.7%
[27]
  cell viability: 77.8%
[28]
  cell viability: 63.5%
[29]
  cell viability: 59.6%
[30]
  cell viability: 54.1%
[31]
  cell viability: 49.6%
[32]
  cell viability: 49.1%
[33]
  cell viability: 34.6%

## CC12CC3CC(C)(C1)CC(N)(C3)C2
[1]
  cell viability: 119%
[2]
  cell viability: 111%
[3]
  cell viability: 120%
[4]
  cell viability: 98.4%
[5]
  cell viability: 125%
[6]
  cell viability: 139%
[7]
  cell viability: 134%
[8]
  cell viability: 129%
[9]
  cell viability: 107%
[10]
  cell viability: 89.2%
[11]
  cell viability: 49.7%
[12]
  cell viability: 105%
[13]
  cell viability: 116%
[14]
  cell viability: 133%
[15]
  cell viability: 113%
[16]
  cell viability: 122%
[17]
  cell viability: 128%
[18]
  cell viability: 134%
[19]
  cell viability: 108%
[20]
  cell viability: 127%
[21]
  cell viability: 100%
[22]
  cell viability: 58.5%
[23]
  cell viability: 111%
[24]
  cell viability: 105%
[25]
  cell viability: 114%
[26]
  cell viability: 111%
[27]
  cell viability: 116%
[28]
  cell viability: 132%
[29]
  cell viability: 135%
[30]
  cell viability: 120%
[31]
  cell viability: 113%
[32]
  cell viability: 102%
[33]
  cell viability: 78%
